Measured values from PMC4876719 (Cell chemical biology, 2016).

Molecular target: glutathione-S-transferase Pi 1 (GSTP1) (Homo sapiens, UniProt P09211)
Test: CDNB-glutathione conjugation assay with pure GSTP1 after […] min pre-incubation
Type: biochemical

Chain of glutathione-S-transferase Pi 1 (GSTP1) (P09211 2-210): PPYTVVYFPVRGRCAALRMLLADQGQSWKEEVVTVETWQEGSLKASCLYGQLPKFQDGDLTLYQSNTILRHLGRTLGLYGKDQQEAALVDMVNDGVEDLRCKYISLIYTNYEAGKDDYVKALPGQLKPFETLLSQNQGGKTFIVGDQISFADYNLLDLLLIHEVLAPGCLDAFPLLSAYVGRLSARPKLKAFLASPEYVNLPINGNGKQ

For LAS17, the IC50 was 500 nM.
